Reference: patent publication US11895992B2, “Animal models of corneal ectatic diseases, methods of producing, and methods of use thereof” (priority 2014, dated 2024)
Read-outs that look alike come from different tables or passages of the source.

Assays:
[1] = system: cornea of one eye of a Wistar rat
Method: A rat model of corneal keratoconus was produced as follows. An aqueous benzene composition having a concentration of 7.0 M to 8.5 M was prepared by mixing water and benzene. The composition was then sterilized by heating the solution to 100° C. for 15 minutes. The aqueous benzene composition (10 μL) was topically applied directly to the center of the cornea of one eye of a Wistar rat by micropipetting. The rat was three months old, and benzene was applied only once.

[2] = system: cornea of the right eye of a Wistar rat
Method: Rat models of corneal angiogenesis were produced as follows. Aqueous benzene compositions having the desired concentration (between 3.0 M and 7.0 M) were prepared by mixing benzene and water. The aqueous composition was then sterilized by heating to 100° C. for 15 minutes. In particular, 3.0 M, 4.0 M, 5.0 M, 6.0 M, or 7.0 M aqueous benzene compositions were prepared. Then, 10 μL of each composition was topically applied to the center of the cornea of the right eye of a Wistar rat that was two to three months old. The benzene aqueous composition was allowed to absorb into the eye, and was applied only once. Because the eye has its own natural protective mechanisms, it was not necessary to wash the eye at the end of the application.

cornea = conditions: compared to the amount observed when benzene is used
[3] = system: cornea of the right eye of a Wistar rat; conditions: for Observation in Treated Eye (Number of Rats) Angiogenesis / Observation in Treated Eye (Number of Rats) Corneal Keratoconus / Observation in Treated Eye (Number of Rats) No Change: 10 μL applied once, 5 rats treated
Method: Rat models of corneal angiogenesis and corneal keratoconus were produced as follows. Aqueous solutions of phenol having a concentration of 0.1 M, 0.5 M, 1.0 M, 3.0 M, 5.6 M, or 8.5 M were prepared by mixing phenol and water. The solutions were then sterilized by heating to 100° C. for 15 minutes. Then, 10 μL of the sterile phenol solution was topically applied to the center of the cornea of the right eye of a Wistar rat that was two months old. Five rats were treated for each concentration of phenol tested. The phenol solution was allowed to absorb into the eye, and was applied only once. Because the eye has its own natural protective mechanisms, it was not necessary to wash the eye at the end of the application.
Histological studies were performed after eight weeks following the application of phenol. The cornea was excised, and a piece of the corneal epithelium was stained with hematoxylin and eosin stain.

[4] = 7.0 M to 8.5 M aqueous benzene composition, 10 μL

## c1ccccc1 [benzene]
[1]; [4]
  time at which changes in the cornea began to occur following application: within the first week
  time of protrusion of the cornea following application: within the second week
[1]; 7.0 M to 8.5 M aqueous benzene composition, 10 μL, applied once (FIG. 3)
  corneal tissue changes in addition to angiogenesis: marked thinning, and outward protrusion
[1]; 10 μL of a 9.0 M aqueous benzene composition
  severity of corneal keratoconus / endophthalmitis (intraocular infection): so severe that the rats developed endophthalmitis
[2]; all concentrations of benzene (3.0 M to 7.0 M, 10 μL), as early as 15 days after application
  new blood vessel formation in the cornea: new blood vessels began to form in the cornea
[2]; single application of benzene
  persistence of observed growth of new blood vessels from the initial application: at least four
[2]; three weeks after application
  amount of new blood vessels observed in the cornea, compared with 15 days: even greater
[2]; within 15 days of application, 3.0 M to 7.0 M
  amount of new blood vessels observed when higher concentrations were applied: increased

## Oc1ccccc1 [phenol]
cornea
  fibrosis and scar tissue formation, phenol compared with benzene: less fibrosis and scar tissue formation
[3]; 3 M phenol solution, 10 μL, three weeks (FIG. 1B)
  other anatomical or inflammatory alterations besides new corneal vessels: no other anatomical or inflammatory alterations were observed
[3]; Phenol Concentration 0.1M
  Observation in Treated Eye (Number of Rats) Angiogenesis: 1 Number of Rats
  Observation in Treated Eye (Number of Rats) Corneal Keratoconus: 0 Number of Rats
  Observation in Treated Eye (Number of Rats) No Change: 4 Number of Rats
[3]; Phenol Concentration 0.5M
  Observation in Treated Eye (Number of Rats) Angiogenesis: 1 Number of Rats
  Observation in Treated Eye (Number of Rats) Corneal Keratoconus: 0 Number of Rats
  Observation in Treated Eye (Number of Rats) No Change: 4 Number of Rats
[3]; Phenol Concentration 1.0M
  Observation in Treated Eye (Number of Rats) Angiogenesis: 3 Number of Rats
  Observation in Treated Eye (Number of Rats) Corneal Keratoconus: 0 Number of Rats
  Observation in Treated Eye (Number of Rats) No Change: 7 Number of Rats
[3]; Phenol Concentration 3.0M
  Observation in Treated Eye (Number of Rats) Angiogenesis: 4 Number of Rats
  Observation in Treated Eye (Number of Rats) Corneal Keratoconus: 2 Number of Rats
  Observation in Treated Eye (Number of Rats) No Change: 1 Number of Rats
[3]; Phenol Concentration 6.5M
  Observation in Treated Eye (Number of Rats) Angiogenesis: 4 Number of Rats
  Observation in Treated Eye (Number of Rats) Corneal Keratoconus: 2 Number of Rats
  Observation in Treated Eye (Number of Rats) No Change: 1 Number of Rats
[3]; Phenol Concentration 8.5M
  Observation in Treated Eye (Number of Rats) Angiogenesis: 3 Number of Rats
  Observation in Treated Eye (Number of Rats) Corneal Keratoconus: 1 Number of Rats
  Observation in Treated Eye (Number of Rats) No Change: 2 Number of Rats
[3]; after single application of aqueous phenol solution
  period over which blood vessel growth was observed: four
[3]; all concentrations tested (0.1 M to 8.5 M), at least one of the rats in each group, one week after application
  new blood vessel formation in the cornea: new blood vessels began to form in the cornea
[3]; eight weeks after single application of 3.0 M phenol solution (10 μl), FIG. 1C
  histology of corneal epithelium, hematoxylin and eosin stain: well differentiated blood vessels can be seen under the basal membrane of the corneal epithelium
[3]; higher concentrations of phenol tested (3.0 M, 5.6 M, and 8.5 M)
  changes associated with corneal ectasia, particularly corneal keratoconus: observed in some of the rats
[3]; three weeks after application (FIG. 1B, 3 M solution)
  amount of new blood vessels observed in the cornea, compared with one week: even greater
